Laboratory results taken from patent US10106544B2, “1,2-dihydro-3H-pyrrolo[1,2-C]imidazol-3-one derivatives and their use as antibacterial agents” (priority 2014, dated 2018).
Values after ≈ are worked out from the molar mass of the structure shown.

Legend:
Assay in all cases: Bacterial growth minimal inhibitory concentration (microdilution, cation-adjusted Mueller-Hinton Broth)
Type in all cases: cell-based
E. coli ATCC25922 = conditions: Escherichia coli, ATCC25922; quinolone-sensitive strain; read-out: MIC for E. coli ATCC25922
Procedure: (§1) Minimal Inhibitory Concentrations (MICs; mg/L) were determined in cation-adjusted Mueller-Hinton Broth by a microdilution method following the description given in “Methods for Dilution Antimicrobial Susceptibility Tests for Bacteria that Grow Aerobically”, Approved standard, 7th ed., a Clinical and Laboratory Standards Institute (CLSI) Document M7-A7, Wayne, Pa., USA (2006).
(§2) All Example compounds were tested against several Gram-positive and Gram-negative bacteria. […] K. pneumoniae A-651 is a multiply-resistant strain (in particular quinolone-resistant), while E. coli ATCC25922 and P. aeruginosa ATCC27853 are quinolone-sensitive strains.

K. pneumoniae A-651 = conditions: Klebsiella pneumoniae, A651; multiply-resistant strain (in particular quinolone-resistant); read-out: MIC for K. Pneumoniae A-651
Procedure: as §1, §2

P. aeruginosa ATCC27853 = conditions: Pseudomonas aeruginosa, ATCC27853, quinolone-sensitive strain; read-out: MIC for P. aeruginosa ATCC27853
Procedure: as §1, §2

| SMILES | MIC (E. coli ATCC25922) | MIC (K. pneumoniae A-651) | MIC (P. aeruginosa ATCC27853) |
| --- | --- | --- | --- |
| C[C@@](CCN1Cc2cc(C#CC#CC(CO)C3CCC3)cn2C1=O)(C(=O)NO)S(C)(=O)=O (mixture of isomers) [Example 60, (2R)-4-(6-((5RS)-5-cyclobutyl-6-hydroxyhexa-1,3-diyn-1-yl)-3-oxo-1H-pyrrolo[1,2-c]imidazol-2(3H)-yl)-N-hydroxy-2-methyl-2-(methylsulfonyl)butanamide] | 0.5 µg/mL | 1 µg/mL | 4 µg/mL |
| CC(CCN1Cc2cc(-c3ccc(C4(O)COC4)cc3)cn2C1=O)(C(=O)NO)S(C)(=O)=O (racemic) [RE1, (RS)—N-hydroxy-4-(6-(4-(3-hydroxyoxetan-3-yl)phenyl)-3-oxo-1H-pyrrolo[1,2-c]imidazol-2(3H)-yl)-2-methyl-2-(methylsulfonyl)butanamide] | 8 µg/mL (≈ 17.3 µM) | 16 µg/mL (≈ 34.5 µM) | 16 µg/mL (≈ 34.5 µM) |
| CCOC(C)(C)c1ccc(C#Cc2cc3n(c2)C(=O)N(CCC(C)(C(=O)NO)S(C)(=O)=O)C3)cc1 (racemic) [RE2, (RS)-4-(6-((4-(2-ethoxypropan-2-yl)phenyl)ethynyl)-3-oxo-1H-pyrrolo[1,2-c]imidazol-2(3H)-yl)-N-hydroxy-2-methyl-2-(methylsulfonyl)butanamide] | 2 µg/mL (≈ 3.99 µM) | 2 µg/mL (≈ 3.99 µM) | 8 µg/mL (≈ 15.9 µM) |
| CC(CCN1Cc2cc(C#Cc3ccc(CO)cc3F)cn2C1=O)(C(=O)NO)S(C)(=O)=O (racemic) [RE3, (RS)-4-(6-((2-fluoro-4-(hydroxymethyl)phenyl)ethynyl)-3-oxo-1H-pyrrolo[1,2-c]imidazol-2(3H)-yl)-N-hydroxy-2-methyl-2-(methylsulfonyl)butanamide] | 0.5 µg/mL (≈ 1.08 µM) | 1 µg/mL (≈ 2.16 µM) | 4 µg/mL (≈ 8.63 µM) |
| CC(C)(O)C#Cc1ccc(-c2cc3n(c2)C(=O)N(CCC(C)(C(=O)NO)S(C)(=O)=O)C3)cc1 (racemic) [RE4, (RS)—N-hydroxy-4-(6-(4-(3-hydroxy-3-methylbut-1-yn-1-yl)phenyl)-3-oxo-1H-pyrrolo[1,2-c]imidazol-2(3H)-yl)-2-methyl-2-(methylsulfonyl)butanamide] | 0.25 µg/mL (≈ 0.528 µM) | 0.5 µg/mL (≈ 1.06 µM) | 2 µg/mL (≈ 4.22 µM) |

Continued, values first:

| MIC (E. coli ATCC25922) | MIC (K. pneumoniae A-651) | MIC (P. aeruginosa ATCC27853) | SMILES |
| --- | --- | --- | --- |
| 2 µg/mL (≈ 4.75 µM) | 8 µg/mL (≈ 19 µM) | 4 µg/mL (≈ 9.49 µM) | CC(C)(O)C#CC#Cc1cc2n(c1)C(=O)N(CCC(C)(C(=O)NO)S(C)(=O)=O)C2 (racemic) [RE5, (RS)—N-hydroxy-4-(6-(5-hydroxy-5-methylhexa-1,3-diyn-1-yl)-3-oxo-1H-pyrrolo[1,2-c]imidazol-2(3H)-yl)-2-methyl-2-(methylsulfonyl)butanamide] |
| 2 µg/mL (≈ 3.79 µM) | 8 µg/mL (≈ 15.2 µM) | 2 µg/mL (≈ 3.79 µM) | CN1CCN(Cc2ccc(C#Cc3cc4n(c3)C(=O)N(CCC(C)(C(=O)NO)S(C)(=O)=O)C4)cc2)CC1 (racemic) [RE6, (RS)—N-hydroxy-2-methyl-4-(6-((4-((4-methylpiperazin-1-yl)methyl)phenyl)ethynyl)-3-oxo-1H-pyrrolo[1,2-c]imidazol-2(3H)-yl)-2-(methylsulfonyl)butanamide] |
| 4 µg/mL (≈ 8.86 µM) | 8 µg/mL (≈ 17.7 µM) | 8 µg/mL (≈ 17.7 µM) | CC(CCN1Cc2cc(-c3ccc(OCCO)cc3)cn2C1=O)(C(=O)NO)S(C)(=O)=O (racemic) [RE7, (RS)—N-hydroxy-4-(6-(4-(2-hydroxyethoxy)phenyl)-3-oxo-1H-pyrrolo[1,2-c]imidazol-2(3H)-yl)-2-methyl-2-(methylsulfonyl)butanamide] |
| 2 µg/mL (≈ 4.3 µM) | 2 µg/mL (≈ 4.3 µM) | 8 µg/mL (≈ 17.2 µM) | COCCOc1ccc(-c2cc3n(c2)C(=O)N(CCC(C)(C(=O)NO)S(C)(=O)=O)C3)cc1 (racemic) [RE8, (RS)—N-hydroxy-4-(6-(4-(2-methoxyethoxy)phenyl)-3-oxo-1H-pyrrolo[1,2-c]imidazol-2(3H)-yl)-2-methyl-2-(methylsulfonyl)butanamide] |
| 0.125 µg/mL (≈ 0.295 µM) | 2 µg/mL (≈ 4.72 µM) | 0.5 µg/mL (≈ 1.18 µM) | Cc1ccc(-c2cc3n(c2)C(=O)N(CCC(C)(C(=O)NO)S(C)(=O)=O)C3)c(F)c1 (racemic) [RE9, (RS)-4-(6-(2-fluoro-4-methylphenyl)-3-oxo-1H-pyrrolo[1,2-c]imidazol-2(3H)-yl)-N-hydroxy-2-methyl-2-(methylsulfonyl)butanamide] |
